These results are taken from patent US10865208B2, “ATG7 inhibitors and the uses thereof” (Millennium Pharmaceuticals, Inc., priority 2016, dated 2020).

This assay has as its target recombinant human His-ATG7 enzyme (Homo sapiens (Human), UniProt O95352). The experiment in a line: ATG7 Enzyme Assay (HTRF/FRET, ATG3-GST and Flag-Gabarap). The following applies: for inhibition at 0.111 µM: Concentration 0.111 μM; for inhibition at 0.123 µM: Concentration 0.123 μM. The class given is biochemical. The essentials: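 0.15 nM His-ATG7 was reacted with 5 nM ATG3-GST, 5 nM Flag-Gabarap and 10 μM ATP in HEPES pH 7.5 containing MgCl2, GSH and TCEP for 105 min at 24° C, then stopped with EDTA/KF. Eu-anti-Flag and anti-GST-APC HTRF was read after 2 h. Results are given as single-concentration % inhibition or IC50.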
In general terms: Time-resolved FRET reads energy transfer from a long-lived donor to a nearby acceptor.

Chain of recombinant human His-ATG7 enzyme (O95352 whole entry): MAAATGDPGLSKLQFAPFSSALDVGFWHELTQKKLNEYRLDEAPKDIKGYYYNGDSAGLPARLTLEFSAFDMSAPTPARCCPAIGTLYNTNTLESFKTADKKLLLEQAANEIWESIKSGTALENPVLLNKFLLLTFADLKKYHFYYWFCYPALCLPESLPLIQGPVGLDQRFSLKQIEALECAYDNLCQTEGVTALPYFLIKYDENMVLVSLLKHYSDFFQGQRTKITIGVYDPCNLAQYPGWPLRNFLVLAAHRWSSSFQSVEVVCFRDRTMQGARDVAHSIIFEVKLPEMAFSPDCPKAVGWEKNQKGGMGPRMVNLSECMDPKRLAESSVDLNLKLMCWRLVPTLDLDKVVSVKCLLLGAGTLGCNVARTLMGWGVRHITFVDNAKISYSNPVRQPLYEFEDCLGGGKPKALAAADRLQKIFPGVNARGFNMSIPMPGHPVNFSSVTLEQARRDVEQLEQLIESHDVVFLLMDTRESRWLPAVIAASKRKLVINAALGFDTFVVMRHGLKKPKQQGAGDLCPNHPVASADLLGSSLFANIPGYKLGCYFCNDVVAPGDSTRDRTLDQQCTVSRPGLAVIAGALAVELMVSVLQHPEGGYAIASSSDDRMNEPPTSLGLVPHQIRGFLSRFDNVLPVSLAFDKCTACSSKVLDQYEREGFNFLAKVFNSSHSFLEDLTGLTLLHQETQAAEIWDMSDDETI

As a reminder, the IC50 is the concentration needed to halve the response being measured. Usually inhibition stands for the relative decrease from the control value, in per cent. Turning to `Nc1ncnc2c1c(SCc1ccnnc1)nn2[C@@H]1O[C@H](COS(N)(=O)=O)[C@@H](O)[C@@H]1F` [Compound I-128, [(2R,3R,4S,5R)-5-{4-amino-3-[(pyridazin-4-ylmethyl)sulfanyl]-1H-pyrazolo[3,4-d]pyrimidin-1-yl}-4-fluoro-3-hydroxytetrahydrofuran-2-yl]methyl sulfamate], the IC50 fell in the range of 50 to 100 nM. Also, where the note is “read-out: Percent Inhibition”, the inhibition at 0.111 µM is 52%.
The matching figures for `Nc1ncnc2c1c(SC1CC1)nn2[C@H]1C[C@H](O)[C@@H](COS(N)(=O)=O)O1` [Compound I-167, {(2R,3S,5R)-5-[4-amino-3-(cyclopropylsulfanyl)-1H-pyrazolo[3,4-d]pyrimidin-1-yl]-3-hydroxytetrahydrofuran-2-yl}methyl sulfamate]: 50 to 100 nM and 68%.
Taken in the same sequence, the figures for `Nc1ncnc2c1c(SCC1CC1(F)F)nn2[C@@H]1O[C@H](COS(N)(=O)=O)[C@@H](O)[C@@H]1F` (mixture of isomers) [Compound I-131, {(2R,3R,4S,5R)-5-[4-amino-3-({[(1R)-2,2-difluorocyclopropyl]methyl}sulfanyl)-1H-pyrazolo[3,4-d]pyrimidin-1-yl]-4-fluoro-3-hydroxytetrahydrofuran-2-yl}methyl sulfamate and {(2R,3R,4S,5R)-5-[4-amino-3-({[(1S)-2,2-difluorocyclopropyl]methyl}sulfanyl)-1H-pyrazolo[3,4-d]pyrimidin-1-yl]-4-fluoro-3-hydroxytetrahydrofuran-2-yl}methyl sulfamate] were 20 to 50 nM and 76%.
As to `Nc1ncnc2c1c(I)nn2[C@@H]1O[C@H](COS(N)(=O)=O)[C@@H](O)[C@H]1O` [Compound I-79, [(2R,3S,4R,5R)-5-(4-amino-3-iodo-1H-pyrazolo[3,4-d]pyrimidin-1-yl)-3,4-dihydroxytetrahydrofuran-2-yl]methyl sulfamate], the IC50 was less than 20 nM. For the same molecule, for the setting “read-out: Percent Inhibition”, the inhibition at 0.123 µM was 85%.
As for `Nc1ncnc2c1c(SC1CCC1)nn2[C@@H]1O[C@H](COS(N)(=O)=O)[C@@H](O)[C@H]1O` [Compound I-56, {(2R,3S,4R,5R)-5-[4-amino-3-(cyclobutylsulfanyl)-1H-pyrazolo[3,4-d]pyrimidin-1-yl]-3,4-dihydroxytetrahydrofuran-2-yl}methyl sulfamate], the IC50 was less than 20 nM. In addition, the inhibition at 0.111 µM (read-out: Percent Inhibition) came to 84%.
The matching figures for `Cc1ccc(Sc2nn([C@H]3C[C@H](O)[C@@H](COS(N)(=O)=O)O3)c3ncnc(N)c23)cc1` [Compound I-193, [(2R,3S,5R)-5-{4-amino-3-[(4-methylphenyl)sulfanyl]-1H-pyrazolo[3,4-d]pyrimidin-1-yl}-3-hydroxytetrahydrofuran-2-yl]methyl sulfamate]: 100 to 500 nM and 46%.
Regarding `Cc1cccc(CSc2nn([C@@H]3O[C@H](COS(N)(=O)=O)[C@@H](O)[C@H]3O)c3ncnc(N)c23)c1` [Compound I-31, [(2R,3S,4R,5R)-5-{4-amino-3-[(3-methylbenzyl)sulfanyl]-1H-pyrazolo[3,4-d]pyrimidin-1-yl}-3,4-dihydroxytetrahydrofuran-2-yl]methyl sulfamate], the IC50 is 20 to 50 nM. Moreover, the inhibition at 0.123 µM (read-out: Percent Inhibition) stood at 85%.
As for `Nc1ncnc2c1c(SCC1CC1)nn2[C@H]1C[C@H](O)[C@@H](COS(N)(=O)=O)O1` [Compound I-202, [(2R,3S,5R)-5-{4-amino-3-[(cyclopropylmethyl)sulfanyl]-1H-pyrazolo[3,4-d]pyrimidin-1-yl}-3-hydroxytetrahydrofuran-2-yl]methyl Sulfamate], the IC50 fell in the range of 50 to 100 nM. The inhibition at 0.111 µM (read-out: Percent Inhibition) stood at 62%.
The matching figures for `COc1nn([C@H]2C[C@H](O)[C@H](COS(N)(=O)=O)O2)c2ncnc(N)c12` [Compound I-225, [(2S,3S,5R)-5-(4-amino-3-methoxy-1H-pyrazolo[3,4-d]pyrimidin-1-yl)-3-hydroxytetrahydrofuran-2-yl]methyl sulfamate]: more than 500 nM and 10%.
Consider `CC(C)Oc1nn([C@@H]2O[C@H](COS(N)(=O)=O)[C@@H](O)[C@H]2O)c2ncnc(N)c12` [Compound I-7, [(2R,3S,4R,5R)-5-(4-amino-3-isopropoxy-1H-pyrazolo[3,4-d]pyrimidin-1-yl)-3,4-dihydroxytetrahydrofuran-2-yl]methyl sulfamate], for which the IC50 was more than 500 nM. Moreover, the inhibition at 0.069 µM (Concentration 0.069 μM, read-out: Percent Inhibition) was 7%.
As for `N#Cc1ccnc(Sc2nn([C@@H]3O[C@H](COS(N)(=O)=O)[C@@H](O)[C@@H]3F)c3ncnc(N)c23)c1` [Compound I-130, [(2R,3R,4S,5R)-5-{4-amino-3-[(4-cyanopyridin-2-yl)sulfanyl]-1H-pyrazolo[3,4-d]pyrimidin-1-yl}-4-fluoro-3-hydroxytetrahydrofuran-2-yl]methyl sulfamate], the IC50 lay within 20 to 50 nM. Moreover, the inhibition at 0.111 µM (read-out: Percent Inhibition) is 77%.
Taken in the same sequence, the figures for `Cn1cncc1Sc1nn([C@@H]2O[C@H](COS(N)(=O)=O)[C@@H](O)[C@@H]2F)c2ncnc(N)c12` [Compound I-134, [(2R,3R,4S,5R)-5-{4-amino-3-[(1-methyl-1H-imidazol-5-yl)sulfanyl]-1H-pyrazolo[3,4-d]pyrimidin-1-yl}-4-fluoro-3-hydroxytetrahydrofuran-2-yl]methyl Sulfamate] were 100 to 500 nM and 37%.
Turning to `Nc1ncnc2c1c(Sc1ccc3c(c1)OCCO3)nn2[C@H]1C[C@H](O)[C@@H](COS(N)(=O)=O)O1` [Compound I-201, {(2R,3S,5R)-5-[4-amino-3-(2,3-dihydro-1,4-benzodioxin-6-ylsulfanyl)-1H-pyrazolo[3,4-d]pyrimidin-1-yl]-3-hydroxytetrahydrofuran-2-yl}methyl sulfamate], the IC50 is 20 to 50 nM. The inhibition at 0.111 µM (read-out: Percent Inhibition) worked out at 68%.
For `Nc1ncnc2c1c(SCc1ccc(Cl)o1)nn2[C@@H]1O[C@H](COS(N)(=O)=O)[C@@H](O)[C@H]1O` [Compound I-73, [(2R,3S,4R,5R)-5-(4-amino-3-{[(5-chloro-2-furyl)methyl]sulfanyl}-1H-pyrazolo[3,4-d]pyrimidin-1-yl)-3,4-dihydroxytetrahydrofuran-2-yl]methyl sulfamate], the IC50 lay in the range of 20 to 50 nM. The inhibition at 0.123 µM (read-out: Percent Inhibition) was 83%.
With `Nc1ncnc2c1c(Sc1cccc(OC(F)(F)F)c1)nn2[C@H]1C[C@H](O)[C@@H](COS(N)(=O)=O)O1` [Compound I-198, [(2R,3S,5R)-5-(4-amino-3-{[3-(trifluoromethoxy)phenyl]sulfanyl}-1H-pyrazolo[3,4-d]pyrimidin-1-yl)-3-hydroxytetrahydrofuran-2-yl]methyl sulfamate], the IC50 fell in the range of 100 to 500 nM. The inhibition at 0.111 µM (read-out: Percent Inhibition) stood at 42%.
The matching figures for `CCN(CC)CCSc1nn([C@@H]2O[C@H](COS(N)(=O)=O)[C@@H](O)[C@@H]2F)c2ncnc(N)c12` [Compound I-104, [(2R,3R,4S,5R)-5-(4-amino-3-{[2-(diethylamino)ethyl]sulfanyl}-1H-pyrazolo[3,4-d]pyrimidin-1-yl)-4-fluoro-3-hydroxytetrahydrofuran-2-yl]methyl sulfamate]: 100 to 500 nM and 38%.
The matching figures for `Nc1ncnc2c1c(Sc1ccc3c(c1)OCO3)nn2[C@H]1C[C@H](O)[C@@H](COS(N)(=O)=O)O1` [Compound I-175, {(2R,3S,5R)-5-[4-amino-3-(1,3-benzodioxol-5-ylsulfanyl)-1H-pyrazolo[3,4-d]pyrimidin-1-yl]-3-hydroxytetrahydrofuran-2-yl}methyl sulfamate]: 50 to 100 nM and 66%.
For the molecule `Nc1ncnc2c1c(Sc1cn[nH]c1)nn2[C@@H]1O[C@H](COS(N)(=O)=O)[C@@H](O)[C@H]1O` [Compound I-36, {(2R,3S,4R,5R)-5-[4-amino-3-(1H-pyrazol-4-ylsulfanyl)-1H-pyrazolo[3,4-d]pyrimidin-1-yl]-3,4-dihydroxytetrahydrofuran-2-yl}methyl sulfamate], the IC50 was less than 20 nM. Moreover, the inhibition at 0.111 µM (read-out: Percent Inhibition) came to 88%.
Taken in the same sequence, the figures for `Nc1ncnc2c1c(SCc1ccccc1)nn2[C@H]1C[C@H](O)[C@H](COS(N)(=O)=O)O1` [Compound I-221, {(2S,3S,5R)-5-[4-amino-3-(benzylsulfanyl)-1H-pyrazolo[3,4-d]pyrimidin-1-yl]-3-hydroxytetrahydrofuran-2-yl}methyl Sulfamate] were 100 to 500 nM and 26%.
With `Nc1ncnc2c1c(Sc1cccc(Cl)c1)nn2[C@@H]1O[C@H](COS(N)(=O)=O)[C@@H](O)[C@@H]1F` [Compound I-106, [(2R,3R,4S,5R)-5-{4-amino-3-[(3-chlorophenyl)sulfanyl]-1H-pyrazolo[3,4-d]pyrimidin-1-yl}-4-fluoro-3-hydroxytetrahydrofuran-2-yl]methyl Sulfamate], the IC50 is 20 to 50 nM. For the setting “read-out: Percent Inhibition”, the inhibition at 0.123 µM is 78%.
The matching figures for `Nc1ncnc2c1c(SCc1ccccn1)nn2[C@@H]1O[C@H](COS(N)(=O)=O)[C@@H](O)[C@H]1O` [Compound I-59, [(2R,3S,4R,5R)-5-{4-amino-3-[(pyridin-2-ylmethyl)sulfanyl]-1H-pyrazolo[3,4-d]pyrimidin-1-yl}-3,4-dihydroxytetrahydrofuran-2-yl]methyl sulfamate]: 20 to 50 nM and 75%.
For the molecule `Nc1ncnc2c1c(SC1CCOC1)nn2[C@@H]1O[C@H](COS(N)(=O)=O)[C@@H](O)[C@@H]1F` (mixture of isomers) [Compound I-123, [(2R,3R,4S,5R)-5-{4-amino-3-[(3R)-tetrahydrofuran-3-ylsulfanyl]-1H-pyrazolo[3,4-d]pyrimidin-1-yl}-4-fluoro-3-hydroxytetrahydrofuran-2-yl]methyl sulfamate and [(2R,3R,4S,5R)-5-{4-amino-3-[(3S)-tetrahydrofuran-3-ylsulfanyl]-1H-pyrazolo[3,4-d]pyrimidin-1-yl}-4-fluoro-3-hydroxytetrahydrofuran-2-yl]methyl sulfamate], the IC50 lay within 20 to 50 nM. Also, for the setting “read-out: Percent Inhibition”, the inhibition at 0.111 µM came to 78%.
